The results in this text go back to patent EP1808178A1, “Composition comprising Astragalus radix extracts for treating prostate cancer” (Golden Biotechnology Corp., priority 2005, dated 2007).

The experiment concerns human prostate cancer cell lines- LNCaP cells. As to the kind of experiment: In vitro mode adjunctive treatment activity assay with Taxol (MTT colorimetric cell survival). Format: cell-based. The note with it: PCF1 concentration 0.0 µL/mL, i.e. Taxol (2nM) alone. The procedure:
Utilize in vitro filter mode for human prostate cancer cell lines- LNCaP cells. Where human prostate cancer cell lines - LNCaP cells is being cultured in the culture medium which is supplemented by fetalbovine serum for 24 hours, and process cells by Taxol for 72 hours, and then change the culture medium so as to culture it in a new culture medium by adding assay sample for 72 hours, afterwards evaluate the cell survival rate by MIT colorimetric analysis method.
? The assay analysis of the compositions in accordance with the present invention in effect for suppressing the growth of human prostate cancer cells, wherein it is necessary to compute the cell survival rate for cells in each well of96-well microplate, afterwards evaluate the cancer cells survival rate by MIT colorimetric analysis method.
? MTT colorimetric analysis method: MTT is a kind of tertrazolium salt, with a full name of 3-[4, 5-Dimenthylthialzol-2-yl] 2, 5-diphenyltetrazoliumbromide, which is the yellow dye, capable to be absorbed by live cells and also be reduced to blue color formazan by succinate-tetrazoliumreductase in mitochondrion, which is commonly used for filtering the affection for matters to the growth and proliferation of cells.

Turning to `CC(=O)O[C@H]1C(=O)[C@@]2(C)[C@H]([C@H](OC(=O)c3ccccc3)[C@]3(O)C[C@H](OC(=O)[C@H](O)[C@@H](NC(=O)c4ccccc4)c4ccccc4)C(C)=C1C3(C)C)[C@]1(OC(C)=O)CO[C@@H]1C[C@@H]2O` [Taxol], the “Cell Survival Rate (%)” value came to 56.4%.
